From patent publication US12692269B2, “Therapeutic compounds” (Genentech, Inc., priority 2019, dated 2026)

Legend:
Format in all cases: binding
[1] = biological target: TEAD3 TAZ (amino acids 13-57) (Homo sapiens, UniProt Q99594); assay: TEAD3-TAZ HTRF (TR-FRET) protein-protein interaction assay; conditions: for TEAD3 TAZ HTRF combined: Max % Inhibition: TEAD3, TAZ peptide; for EC50: TEAD3-TAZ HTRF, TR-FRET 665 nm/615 nm, read-out: TEAD3 TAZ HTRF combined: EC50
Method in brief: (§1)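 Read-out is the TR-FRET 665 nm/615 nm ratio, which falls when compound disrupts TEAD binding to YAP (aa 50-100) or TAZ (aa 13-57) peptide. Eu anti-His-labelled His-TEAD (aa 217-447) saw compound for 30 min, then peptide/streptavidin-XL665 for 60 min, room temperature.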

[2] = biological target: TEAD3 YAP50-100 (Homo sapiens, UniProt Q99594); assay: TEAD3-YAP HTRF (TR-FRET) protein-protein interaction assay; conditions: TEAD3, YAP peptide 50-100, HTRF; for EC50: read-out: TEAD3 YAP50-100 HTRF combined: EC50
TEAD3 YAP50-100, sequence (Q99594 173-435 limits assumed): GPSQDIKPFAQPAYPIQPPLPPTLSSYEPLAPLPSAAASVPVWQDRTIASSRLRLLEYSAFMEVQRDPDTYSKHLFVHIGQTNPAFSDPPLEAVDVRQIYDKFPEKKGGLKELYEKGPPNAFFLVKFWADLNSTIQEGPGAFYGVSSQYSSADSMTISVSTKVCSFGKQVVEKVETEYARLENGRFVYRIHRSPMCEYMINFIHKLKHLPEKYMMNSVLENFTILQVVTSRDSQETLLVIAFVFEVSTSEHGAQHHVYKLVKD
Method in brief: as §1

[3] = biological target: TEAD1 TAZ (amino acids 13-57) (Homo sapiens, UniProt P28347); assay: TEAD1-TAZ HTRF (TR-FRET) protein-protein interaction assay; conditions: for TEAD1 TAZ HTRF combined: Max % Inhibition: TEAD1, TAZ peptide; for EC50: TEAD1-TAZ HTRF, TR-FRET 665 nm/615 nm, read-out: TEAD1 TAZ HTRF combined: EC50
TEAD1 TAZ (amino acids 13-57), sequence (P28347 167-426 limits assumed): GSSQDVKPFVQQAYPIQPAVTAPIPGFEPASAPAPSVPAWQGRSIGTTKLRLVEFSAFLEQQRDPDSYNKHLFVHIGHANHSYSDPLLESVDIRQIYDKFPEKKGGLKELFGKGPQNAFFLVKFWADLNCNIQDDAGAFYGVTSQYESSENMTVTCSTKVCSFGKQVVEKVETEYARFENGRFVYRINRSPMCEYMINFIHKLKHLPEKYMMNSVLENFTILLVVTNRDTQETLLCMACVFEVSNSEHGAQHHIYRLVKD
Method in brief: as §1

[4] = biological target: TEAD4 TAZ (amino acids 13-57) (Homo sapiens, UniProt Q15561); assay: TEAD4-TAZ HTRF (TR-FRET) protein-protein interaction assay; conditions: for TEAD4 TAZ HTRF combined: Max % Inhibition: TEAD4, TAZ peptide; for EC50: TEAD4-TAZ HTRF, TR-FRET 665 nm/615 nm, read-out: TEAD4 TAZ HTRF combined: EC50
TEAD4 TAZ (amino acids 13-57), sequence (Q15561 217-434 limits assumed): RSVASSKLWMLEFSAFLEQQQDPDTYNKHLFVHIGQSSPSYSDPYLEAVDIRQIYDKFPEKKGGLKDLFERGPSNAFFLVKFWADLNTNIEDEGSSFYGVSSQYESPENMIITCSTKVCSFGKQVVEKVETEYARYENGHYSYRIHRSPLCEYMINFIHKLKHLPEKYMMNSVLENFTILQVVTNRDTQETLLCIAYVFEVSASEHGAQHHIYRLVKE
Method in brief: as §1

[5] = biological target: TEAD2 YAP50-100 (Homo sapiens, UniProt Q15562); assay: TEAD2-YAP HTRF (TR-FRET) protein-protein interaction assay; conditions: TEAD2, YAP peptide 50-100, HTRF; for EC50: read-out: TEAD2 YAP50-100 HTRF combined: EC50
TEAD2 YAP50-100, sequence (Q15562 217-447): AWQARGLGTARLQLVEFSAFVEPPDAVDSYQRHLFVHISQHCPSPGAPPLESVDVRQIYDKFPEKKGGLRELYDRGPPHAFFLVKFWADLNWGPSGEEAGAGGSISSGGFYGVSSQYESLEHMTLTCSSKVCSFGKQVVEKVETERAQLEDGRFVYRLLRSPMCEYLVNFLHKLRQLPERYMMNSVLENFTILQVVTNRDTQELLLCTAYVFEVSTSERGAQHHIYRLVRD
Method in brief: as §1

[6] = biological target: TEAD1 YAP50-100 (Homo sapiens, UniProt P28347); assay: TEAD1-YAP HTRF (TR-FRET) protein-protein interaction assay; conditions: TEAD1, YAP peptide 50-100, HTRF; for EC50: read-out: TEAD1 YAP50-100 HTRF combined: EC50
TEAD1 YAP50-100, sequence (P28347 167-426 limits assumed): as the sequence (P28347 167-426 limits assumed) above
Method in brief: as §1

[7] = biological target: TEAD4 YAP50-100 (Homo sapiens, UniProt Q15561); assay: TEAD4-YAP HTRF (TR-FRET) protein-protein interaction assay; conditions: TEAD4, YAP peptide 50-100, HTRF; for EC50: read-out: TEAD4 YAP50-100 HTRF combined: EC50
TEAD4 YAP50-100, sequence (Q15561 217-434 limits assumed): as the sequence (Q15561 217-434 limits assumed) above
Method in brief: as §1

[8] = biological target: TEAD2 TAZ (amino acids 13-57) (Homo sapiens, UniProt Q15562); assay: TEAD2-TAZ HTRF (TR-FRET) protein-protein interaction assay; conditions: for TEAD2 TAZ HTRF combined: Max % Inhibition: TEAD2, TAZ peptide; for EC50: TEAD2-TAZ HTRF, TR-FRET 665 nm/615 nm, read-out: TEAD2 TAZ HTRF combined: EC50
TEAD2 TAZ (amino acids 13-57), sequence (Q15562 217-447): as the sequence (Q15562 217-447) above
Method in brief: as §1

TEAD3 TAZ (amino acids 13-57), sequence (Q99594 173-435 limits assumed): as the sequence (Q99594 173-435 limits assumed) above

CC(C)(C)c1ccc(COc2cc(=O)n3nc(-c4ncccn4)c(C(=O)N4CC(CF)C4)c3[nH]2)cc1 [Compound 54, 5-((4-(Tert-butyl)benzyl)oxy)-3-(3-(fluoromethyl)azetidine-1-carbonyl)-2-(pyrimidin-2-yl)pyrazolo[1,5-a]pyrimidin-7(4H)-one]
TEAD3 TAZ HTRF combined: Max % Inhibition [1]: 45.0% | EC50 [1]: 90 nM | TEAD3 YAP50-100 HTRF combined: Max % Inhibition [2]: 56.5% | EC50 [2]: 80 nM | TEAD1 TAZ HTRF combined: Max % Inhibition [3]: 63.0% | EC50 [3]: 70 nM | TEAD4 TAZ HTRF combined: Max % Inhibition [4]: 56.0% | EC50 [4]: 40 nM | TEAD2 YAP50-100 HTRF combined: Max % Inhibition [5]: 59.0% | EC50 [5]: 20 nM | TEAD1 YAP50-100 HTRF combined: Max % Inhibition [6]: 71.0% | EC50 [6]: 50 nM | TEAD4 YAP50-100 HTRF combined: Max % Inhibition [7]: 60.5% | EC50 [7]: 40 nM | TEAD2 TAZ HTRF combined: Max % Inhibition [8]: 59.5% | EC50 [8]: 20 nM

Cc1nccnc1-c1nn2c(=O)cc(-c3ccc(C4CCC(F)(F)CC4)cc3)[nH]c2c1C(=O)N1CC(CF)C1 [Compound 55, 5-(4-(4,4-Difluorocyclohexyl)phenyl)-3-(3-(fluoromethyl)azetidine-1-carbonyl)-2-(3-methylpyrazin-2-yl)pyrazolo[1,5-a]pyrimidin-7(4H)-one]
TEAD3 TAZ HTRF combined: Max % Inhibition [1]: 55.0% | EC50 [1]: 210 nM | TEAD3 YAP50-100 HTRF combined: Max % Inhibition [2]: 62.0% | EC50 [2]: 200 nM | TEAD1 TAZ HTRF combined: Max % Inhibition [3]: 67.0% | EC50 [3]: 240 nM | TEAD4 TAZ HTRF combined: Max % Inhibition [4]: 39.5% | EC50 [4]: 110 nM | TEAD2 YAP50-100 HTRF combined: Max % Inhibition [5]: 56.5% | EC50 [5]: 60 nM | TEAD1 YAP50-100 HTRF combined: Max % Inhibition [6]: 72.0% | EC50 [6]: 260 nM | TEAD4 YAP50-100 HTRF combined: Max % Inhibition [7]: 44.5% | EC50 [7]: 140 nM | TEAD2 TAZ HTRF combined: Max % Inhibition [8]: 60.0% | EC50 [8]: 50 nM

Cc1nccnc1-c1nn2c(=O)cc(-c3ccc(C(F)(F)C4CCCC4)cc3)[nH]c2c1C(=O)N1CC(CF)C1 [Compound 56, 5-(4-(Cyclopentyldifluoromethyl)phenyl)-3-(3-(fluoromethyl)azetidine-1-carbonyl)-2-(3-methylpyrazin-2-yl)pyrazolo[1,5-a]pyrimidin-7(4H)-one]
TEAD3 TAZ HTRF combined: Max % Inhibition [1]: 43.0% | EC50 [1]: 110 nM | TEAD3 YAP50-100 HTRF combined: Max % Inhibition [2]: 49.5% | EC50 [2]: 100 nM | TEAD1 TAZ HTRF combined: Max % Inhibition [3]: 57.0% | EC50 [3]: 70 nM | TEAD4 TAZ HTRF combined: Max % Inhibition [4]: 35.0% | EC50 [4]: 20 nM | TEAD2 YAP50-100 HTRF combined: Max % Inhibition [5]: 61.0% | EC50 [5]: 10 nM | TEAD1 YAP50-100 HTRF combined: Max % Inhibition [6]: 57.0% | EC50 [6]: 60 nM | TEAD4 YAP50-100 HTRF combined: Max % Inhibition [7]: 33.0% | EC50 [7]: 30 nM | TEAD2 TAZ HTRF combined: Max % Inhibition [8]: 60.0% | EC50 [8]: 10 nM

O=C(c1c(-c2ncccn2)nn2c(=O)cc(-c3ccc(C4(C5CCCC5)CC4)cc3)[nH]c12)N1CC(CF)C1 [Compound 57, 5-(4-(1-Cyclopentylcyclopropyl)phenyl)-3-(3-(fluoromethyl)azetidine-1-carbonyl)-2-(pyrimidin-2-yl)pyrazolo[1,5-a]pyrimidin-7(4H)-one]
TEAD3 TAZ HTRF combined: Max % Inhibition [1]: 50.5% | EC50 [1]: 90 nM | TEAD3 YAP50-100 HTRF combined: Max % Inhibition [2]: 53.0% | EC50 [2]: 100 nM | TEAD1 TAZ HTRF combined: Max % Inhibition [3]: 46.5% | EC50 [3]: 70 nM | TEAD4 TAZ HTRF combined: Max % Inhibition [4]: 54.5% | EC50 [4]: 60 nM | TEAD2 YAP50-100 HTRF combined: Max % Inhibition [5]: 51.0% | EC50 [5]: 20 nM | TEAD1 YAP50-100 HTRF combined: Max % Inhibition [6]: 56.0% | EC50 [6]: 80 nM | TEAD4 YAP50-100 HTRF combined: Max % Inhibition [7]: 35.0% | EC50 [7]: 70 nM | TEAD2 TAZ HTRF combined: Max % Inhibition [8]: 53.5% | EC50 [8]: 10 nM

CCCCc1ccc(-c2cc(=O)n3nc(-c4nccnc4C)c(C(=O)N4CC(CF)C4)c3[nH]2)cc1 [Compound 58, 5-(4-Butylphenyl)-3-(3-(fluoromethyl)azetidine-1-carbonyl)-2-(3-methylpyrazin-2-yl)pyrazolo[1,5-a]pyrimidin-7(4H)-one]
TEAD3 TAZ HTRF combined: Max % Inhibition [1]: 58.5% | EC50 [1]: 100 nM | TEAD3 YAP50-100 HTRF combined: Max % Inhibition [2]: 64.5% | EC50 [2]: 90 nM | TEAD1 TAZ HTRF combined: Max % Inhibition [3]: 70.5% | EC50 [3]: 40 nM | TEAD4 TAZ HTRF combined: Max % Inhibition [4]: 68.5% | EC50 [4]: 140 nM | TEAD2 YAP50-100 HTRF combined: Max % Inhibition [5]: 63.0% | EC50 [5]: 10 nM | TEAD1 YAP50-100 HTRF combined: Max % Inhibition [6]: 71.0% | EC50 [6]: 40 nM | TEAD4 YAP50-100 HTRF combined: Max % Inhibition [7]: 59.0% | EC50 [7]: 180 nM | TEAD2 TAZ HTRF combined: Max % Inhibition [8]: 66.5% | EC50 [8]: 10 nM

Cc1nccnc1-c1nn2c(=O)cc(-c3ccc(C4(F)CCCCC4)cc3)[nH]c2c1C(=O)N1CC(CF)C1 [Compound 59, 5-(4-(1-Fluorocyclohexyl)phenyl)-3-(3-(fluoromethyl)azetidine-1-carbonyl)-2-(3-methylpyrazin-2-yl)pyrazolo[1,5-a]pyrimidin-7(4H)-one]
TEAD3 TAZ HTRF combined: Max % Inhibition [1]: 59.0% | EC50 [1]: 340 nM | TEAD3 YAP50-100 HTRF combined: Max % Inhibition [2]: 65.5% | EC50 [2]: 290 nM | TEAD1 TAZ HTRF combined: Max % Inhibition [3]: 65.5% | EC50 [3]: 160 nM | TEAD4 TAZ HTRF combined: Max % Inhibition [4]: 42.5% | EC50 [4]: 180 nM | TEAD2 YAP50-100 HTRF combined: Max % Inhibition [5]: 61.5% | EC50 [5]: 30 nM | TEAD1 YAP50-100 HTRF combined: Max % Inhibition [6]: 68.0% | EC50 [6]: 160 nM | TEAD4 YAP50-100 HTRF combined: Max % Inhibition [7]: 40.0% | EC50 [7]: 180 nM | TEAD2 TAZ HTRF combined: Max % Inhibition [8]: 61.0% | EC50 [8]: 30 nM

Cc1nccnc1-c1nn2c(=O)cc(-c3ccc(-c4ccccc4)cc3)[nH]c2c1C(=O)N1CC(CF)C1 [Compound 60, 5-([1,1′-Biphenyl]-4-yl)-3-(3-(fluoromethyl)azetidine-1-carbonyl)-2-(3-methylpyrazin-2-yl)pyrazolo[1,5-a]pyrimidin-7(4H)-one]
TEAD3 TAZ HTRF combined: Max % Inhibition [1]: 74.0% | EC50 [1]: 220 nM | TEAD3 YAP50-100 HTRF combined: Max % Inhibition [2]: 78.0% | EC50 [2]: 200 nM | TEAD1 TAZ HTRF combined: Max % Inhibition [3]: 78.5% | EC50 [3]: 40 nM | TEAD4 TAZ HTRF combined: Max % Inhibition [4]: 64.0% | EC50 [4]: 510 nM | TEAD2 YAP50-100 HTRF combined: Max % Inhibition [5]: 66.5% | EC50 [5]: 10 nM | TEAD1 YAP50-100 HTRF combined: Max % Inhibition [6]: 80.0% | EC50 [6]: 30 nM | TEAD4 YAP50-100 HTRF combined: Max % Inhibition [7]: 60.0% | EC50 [7]: 610 nM | TEAD2 TAZ HTRF combined: Max % Inhibition [8]: 66.5% | EC50 [8]: 10 nM

Cc1nccnc1-c1nn2c(=O)cc(-c3ccc(O[C@@H](c4ccccc4)C(F)(F)F)cc3)[nH]c2c1C(=O)N1CC(CF)C1 [Compound 67, (S)-3-(3-(Fluoromethyl)azetidine-1-carbonyl)-2-(3-methylpyrazin-2-yl)-5-(4-(2,2,2-trifluoro-1-phenylethoxy)phenyl)pyrazolo[1,5-a]pyrimidin-7(4H)-one]
TEAD3 TAZ HTRF combined: Max % Inhibition [1]: 71.0% | EC50 [1]: 200 nM | TEAD3 YAP50-100 HTRF combined: Max % Inhibition [2]: 79.0% | EC50 [2]: 180 nM | TEAD1 TAZ HTRF combined: Max % Inhibition [3]: 65.0% | EC50 [3]: 220 nM | TEAD4 TAZ HTRF combined: Max % Inhibition [4]: 71.5% | EC50 [4]: 4000 nM | TEAD2 YAP50-100 HTRF combined: Max % Inhibition [5]: 92.5% | EC50 [5]: 50 nM | TEAD1 YAP50-100 HTRF combined: Max % Inhibition [6]: 69.0% | EC50 [6]: 190 nM | TEAD4 YAP50-100 HTRF combined: Max % Inhibition [7]: 72.5% | EC50 [7]: 4250 nM | TEAD2 TAZ HTRF combined: Max % Inhibition [8]: 89.0% | EC50 [8]: 50 nM
